For the assay, the target named is Potassium voltage-gated channel subfamily KQT member 2 (Rattus norvegicus) (UniProt O88943). As to the kind of experiment: PubChem AID 588635. The conditions noted are these: KCNQ2-CHO cells, manual whole-cell patch clamp current; at 0.1 µM; stronger effect = higher value. (Patch clamp records ionic current or voltage across a cell membrane.)
Chain of Potassium voltage-gated channel subfamily KQT member 2 (Rattus norvegicus) (O88943 whole entry, looked up): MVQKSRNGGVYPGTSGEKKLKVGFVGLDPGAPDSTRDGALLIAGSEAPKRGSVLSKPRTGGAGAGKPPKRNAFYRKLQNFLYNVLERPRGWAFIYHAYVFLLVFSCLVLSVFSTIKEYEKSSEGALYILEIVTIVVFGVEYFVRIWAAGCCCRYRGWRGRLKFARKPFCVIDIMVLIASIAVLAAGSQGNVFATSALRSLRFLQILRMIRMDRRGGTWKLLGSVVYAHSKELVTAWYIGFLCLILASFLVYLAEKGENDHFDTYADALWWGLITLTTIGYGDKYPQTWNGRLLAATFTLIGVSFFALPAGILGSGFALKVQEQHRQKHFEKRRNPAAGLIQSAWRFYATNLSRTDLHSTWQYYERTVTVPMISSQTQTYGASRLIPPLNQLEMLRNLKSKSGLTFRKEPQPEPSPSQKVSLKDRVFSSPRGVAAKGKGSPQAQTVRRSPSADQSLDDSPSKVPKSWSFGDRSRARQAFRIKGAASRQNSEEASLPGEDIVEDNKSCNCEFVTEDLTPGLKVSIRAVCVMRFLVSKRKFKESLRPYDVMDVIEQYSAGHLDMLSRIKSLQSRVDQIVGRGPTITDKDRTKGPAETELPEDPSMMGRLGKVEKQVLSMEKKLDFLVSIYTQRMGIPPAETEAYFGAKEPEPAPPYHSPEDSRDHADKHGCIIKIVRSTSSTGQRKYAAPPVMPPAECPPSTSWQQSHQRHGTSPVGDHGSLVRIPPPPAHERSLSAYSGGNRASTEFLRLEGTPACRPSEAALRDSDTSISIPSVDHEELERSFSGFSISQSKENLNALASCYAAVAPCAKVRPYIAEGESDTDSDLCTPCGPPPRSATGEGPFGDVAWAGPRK

Consider `CC[C@H](C(=O)Nc1ccccc1N1CCCC1)c1ccccc1`, for which the inhibition is 83.4%.

In general, inhibition refers to how much of the control response was suppressed.

The values above are taken from PubChem BioAssay AID588635 (Johns Hopkins Ion Channel Center, 2011).
